# Test results: ChEMBL document CHEMBL1155064, “Discovery of aminoquinolines as a new class of potent inhibitors of heat shock protein 90 (Hsp90): Synthesis, biology, and molecular modeling” (Bioorg Med Chem, 2008)
# Active and inactive are the calls of the source. No cut-off for these calls is given here.
# How the values were obtained:
# Heat shock protein HSP90 [1] = target: T1, Heat shock protein HSP90 (Homo sapiens, UniProt P07900+P08238); experiment: Inhibition of Hsp90 in human MCF7 cell lysates assessed as interaction with Cy3b-conjugated geldanamycin by FP assay; type: cell-free
# Heat shock protein HSP90 [2] = target: T1, Heat shock protein HSP90; experiment: Inhibition of Hsp90 in human MCF7 cells assessed as Her2 level after 24 hrs by Western blot; type: cell-based
# MCF7 = experiment: Induction of Her2 degradation in human MCF7 cells after 24 hrs by Western blot analysis; type: functional, cell-based; details: MCF7, 24 h
Structure (SMILES),IC50 (Heat shock protein HSP90 [1]) [µM],Activity (Heat shock protein HSP90 [2]),IC50 (Heat shock protein HSP90 [2]) [µM],IC50 (MCF7) [µM],IC50 (Heat shock protein HSP90 [1]; read-out: IC50) [µM]
CCCNCCCC(C)Nc1cc(OC)cc2c(C)ccnc12 (stereo unspecified),> 50,inactive,–,–,–
COc1cc(NC(C)CCCNC(C)C)c2ncccc2c1OC (stereo unspecified),44,–,25,–,–
COc1cc(NC(C)CCCN)c2ncccc2c1Oc1ccc(Cl)cc1 (stereo unspecified),> 50,inactive,–,–,–
COc1cc(NCCCC(C)N)c2ncccc2c1.Cl.Cl (stereo unspecified),5.8,–,5,–,–
COc1ccc(Oc2c(OC)cc(NCCCCCNC(C)C)c3ncccc23)cc1,> 50,inactive,–,–,–
COc1cc(NC(C)CCCNC(C)C)c2ncccc2c1 (stereo unspecified),14.4,inactive,–,–,–
COc1cc(NCCN(CC(C)C)CC(C)C)c2ncccc2c1,4.9,–,1.6,–,–
CCC(C)NCCNc1cc(OC)cc2cccnc12 (stereo unspecified),–,inactive,–,–,3.1
COc1cc(NCCCN(C(C)C)C(C)C)c2nc(OC)cc(Cl)c2c1,> 50,inactive,–,–,–
CCN(CC)CCCNc1cc(OC)c(Nc2ccccc2)c2cccnc12,2.1,–,25,–,–
COc1cc(NCCN(C(C)C)C(C)C)c2ncccc2c1,40,inactive,–,–,–
CC(C)NCCCC(C)Nc1cc(O)cc2cccnc12 (stereo unspecified),< 1.6,inactive,–,–,–

# Now from value to compound:
IC50 (Heat shock protein HSP90 [1]) [µM],Activity (Heat shock protein HSP90 [2]),IC50 (Heat shock protein HSP90 [2]) [µM],IC50 (MCF7) [µM],IC50 (Heat shock protein HSP90 [1]; read-out: IC50) [µM],Structure (SMILES)
7.6,inactive,–,–,–,NCCCNc1cc(O)cc2cccnc12
1.1,inactive,–,–,–,CCN(CC)CCCC(C)Nc1cc(O)cc2cccnc12 (stereo unspecified)
40,inactive,–,–,–,CCCCN(CCCC)CCNc1cc(OC)cc2cccnc12
0.73,–,1,1,–,Br.CCN(CC)CCCCCNc1cc(O)cc2cccnc12
8,inactive,–,–,–,CCCC(C)N(CC)CCNc1cc(OC)cc2cccnc12 (stereo unspecified)
> 50,–,25,–,–,COc1cc(NCCCCN)c2ncccc2c1
< 1,–,20,–,–,NCCCCCNc1cc(O)cc2cccnc12
1.8,inactive,–,–,–,CC(CCCN)Nc1cc(O)cc2cccnc12 (stereo unspecified)
0.8,–,30,–,–,CC(CCN(C)C)Nc1cc(O)cc2cccnc12 (stereo unspecified)
40,–,13,–,–,CCC(CC)NCCCNc1cc(OC)cc2cccnc12
> 50,inactive,–,–,–,CCN(CC)CCCCNc1cc(O)cc2cccnc12
< 1.6,inactive,–,–,–,NCCCCNc1cc(O)cc2cccnc12
> 50,inactive,–,–,–,CCC(C)(C)NCCCCCNc1cc(OC)cc2cccnc12
< 1.6,–,20,–,–,CC(N)CCCCNc1cc(O)cc2cccnc12 (stereo unspecified)
< 1.6,inactive,–,–,–,CCC(N)CCNc1cc(O)cc2cccnc12 (stereo unspecified)
< 1.6,inactive,–,–,–,CC(N)CCCNc1cc(O)cc2cccnc12 (stereo unspecified)
2.4,–,6,–,–,CC(C)NCCCCCNc1cc(O)cc2cccnc12
14,inactive,–,–,–,CCN(CC)CCCNc1cc(OC)cc2ccc(OC)nc12
